# Assays:
# [1] = VBL PK study in wild‐type and Mdr1a/b(−/−) mice, observed serum and tissue data; details: female, mouse, iv, 2 mg/kg; for half-life: in vivo, 2 mg/kg IV, Obs
# Method: Mouse protocols were approved by the Institutional Animal Care and Use Committee at Colorado State University. Two strains of mice were used: FVB female mice and Mdr1a/b (−/−) (knock‐out, KO) female mice in a FVB background (Taconic Biosciences, Inc) for a total of 15 mice per strain with three mice per time point. […] Whole blood and tissues were harvested throughout a time range of 0.08 to 6 h. Whole blood was collected with heparinized needles and transferred to a microcentrifuge tube and was spun at 1200xg for 10 min at 4°C. The resulting serum and tissues were flash‐frozen in liquid nitrogen and stored at −80°C until ready for analysis.
# Serum samples (200μl) were spiked with 50 ng (10 μl of 5 μg/ml solution) of vincristine as an internal standard. […] During vortex mixing, solid‐phase extraction cartridges were prepared by the addition of 400 μl methanol followed by 400 μl milli‐Q water. Loaded samples were then washed twice with 5% methanol. […] Samples were then evaporated to dryness using a Savant AES 1000 SpeedVac. Samples were then resuspended in 100 μl of diluent and transferred to autosampler vials with glass inserts for injection onto the HPLC system.
# Positive ion electrospray ionization (ESI) mass spectra were obtained with a MDS Sciex 3200 Q‐TRAP triple quadrupole mass spectrometer (Applied Biosystems Inc) with a turbo ionspray source interfaced to a Shimadzu HPLC system and an HTC‐PAL autosampler (Leap Technologies). Samples were chromatographed with an Agilent ZORBAX Rx/SB‐C 8 (4.6 × 75 mm) column (Agilent Technologies) protected by a C 18 guard cartridge, 4.0 mm by 2.0 mm (Phenomenex). An LC gradient was employed with mobile phase A consisting of 10 mM ammonium acetate pH 4.0 and mobile phase B consisting of acetonitrile. Chromatographic resolution was obtained by holding mobile phase B steady at 50% from 0 to 0.01 min, increasing linearly from 50% to […] from 0.01 to 3.0 min, holding steady at 99% from 3.0 to 4.5 min, decreasing linearly from 99% to 50% from 4.5 to 5.0 min, followed by equilibration at 50% from 5.0 to 6.0 min. The LC flow rate was 0.75 ml/min and the sample injection volume was 10 μl. The analysis run time was 6.0 min.
# Analyst v1.5.1 software (Applied Biosystems) was used for peak area integration.
# Plasma and tissue concentrations were measured at time intervals between […] and 6 h post‐drug administration. The mouse PBPK model for Mdr1a/b (−/−) mice and wild‐type mice was developed using SimBiology, MATLAB with a focus on the following tissues: plasma, brain, bone marrow, liver, gut, and kidney. The primary drivers of vinca disposition including tubulin binding, ABCB1‐mediated transport, and elimination via metabolism, biliary clearance, and glomerular filtration created the foundation of the model. Metabolism values were either derived experimentally or sourced from literature, while tissue partitioning and Michaelis–Menten parameters for ABCB1 transport and biliary excretion were optimized using plasma and tissue PK data.
# [2] = Mouse PBPK model simulations and model parameters
# Source text: This model thus aims to elucidate the implications of drug pharmacokinetics and mechanisms of distribution, ultimately providing a modeling base for extrapolation of simulated concentration profiles to clinical settings. The primary drivers of vinca disposition are fraction unbound drug to plasma proteins, intercellular tubulin binding, metabolism, and ABCB1‐mediated transport. With exception to the brain, tissue compartments are defined by a well‐stirred, flow‐limited model in which the concentration of drug leaving the compartment is equal to the unbound drug concentration within the tissue. The blood–brain barrier (BBB) is distinctive as the tight junctions and prolific expression of efflux transporter proteins provide a highly restrictive barrier to many lipophilic molecules. The brain is thus defined by a permeability‐limited model dictated by a modification of Fick's Law of diffusion in which the permeability‐surface area product constitutes the tissue permeation coefficient, the capillary surface area permitting diffusion, and the thickness of the cellular membrane.[32] ABCB1 is highly expressed at the blood–brain barrier as well as in the liver, gut, and kidneys, facilitating drug excretion.[14], [15]
# Physiological parameters for tissue‐specific percent body weight and cardiac output for mouse, canine, and human were sourced from Brown et al.[27] and presented in Table 1. All tissue densities were approximated to be 1 kg/L. Cardiac output for respected species was estimated using a previously derived allometric scaling relationship for unanesthetized mice.[33] […] The rate of change in the amount of drug within generic, non‐eliminating compartments is governed by the following mass balance equation: (1) dAC/dt=VC×dCC/dt=QC×CA−CVT where AC is the amount of drug in the tissue, VC is the volume of the tissue (assuming static volume), CC is the concentration within the tissue, QC is the tissue perfusion rate, CA is the arterial blood drug concentration, and CVT is the venous blood drug concentration.
# Tissue‐specific‐binding capacities, BC , were obtained from studies where tubulin concentrations were determined from tubulin‐binding capacities for colchicine[12] and are reported in Table 2. […] Relative tissue tubulin‐binding capacities were thus assumed to be equivalent for the mouse, dog, and human PBPK model developed herein. […] Partition coefficients, PC , for respective tissues were determined by performing parameter optimization in MATLAB's tool, SimBiology, using a nonlinear least squares regression estimation method from the optimization toolbox. The statistical modeling method fit pooled Mdr1a/b (−/−) tissue data generating one set of partition parameters for all tissues which are reported in Table 1.
# The transfer of drugs at the BBB is unique as the mass transfer out of the vascular space surrounding the brain tissue is hindered by a permeability barrier.
# in vitro = details: female, CD-1, mouse, liver microsomes
# [3] = mouse model, optimized to mouse mdr1a/b (−/−) data
smiles,measurement,setting,value
"CC[C@]1(O)C[C@@H]2CN(CCc3c([nH]c4ccccc34)[C@@](C(=O)OC)(c3cc4c(cc3OC)N(C)[C@H]3[C@@](O)(C(=O)OC)[C@H](OC(C)=O)[C@]5(CC)C=CCN6CC[C@]43[C@@H]65)C2)C1 [VBL, Vinblastine]",AUC,"[1]; FVB (wild-type), brain",0.109 µM·h
same,AUC,"[1]; FVB (wild-type), gut",3.47 µM·h
same,half-life,"[1]; FVB (wild-type), t1/2, wild‐type mice, brain",3.94 h
same,half-life,"[1]; FVB (wild-type), t1/2, wild‐type mice, gut",1.27 h
same,half-life,"[1]; FVB (wild-type), t1/2, wild‐type mice, kidney",1.56 h
same,half-life,"[1]; FVB (wild-type), t1/2, wild‐type mice, liver",1.32 h
same,half-life,"[1]; FVB (wild-type), t1/2, wild‐type mice, serum",1.6 h
same,AUC,"[1]; FVB (wild-type), kidney",12.6 µM·h
same,AUC,"[1]; FVB (wild-type), liver",4.21 µM·h
same,AUC,"[1]; FVB (wild-type), serum",0.181 µM·h
same,AUC,"[1]; FVB, bone marrow",2.98 µM·h
same,AUC,"[1]; Mdr1a/b (−/−) knock-out in FVB background, bone marrow",2.71 µM·h
same,half-life,"[1]; Mdr1a/b (−/−) knock-out in FVB background, t1/2, Mdr1a/b (−/−) mice, bone marrow",5.83 h
same,half-life,"[1]; Mdr1a/b (−/−) knock-out in FVB background, t1/2, Mdr1a/b (−/−) mice, liver",1.8 h
same,AUC,"[1]; Mdr1a/b (−/−) knock-out in FVB background, liver",4.27 µM·h
same,AUC,"[1]; Mdr1a/b (−/−) knock-out, FVB background, brain",1.4 µM·h
same,AUC,"[1]; Mdr1a/b (−/−) knock-out, FVB background, gut",5.9 µM·h
same,half-life,"[1]; Mdr1a/b (−/−) knock-out, FVB background, t1/2, Mdr1a/b (−/−) mice, gut",3.86 h
same,half-life,"[1]; Mdr1a/b (−/−) knock-out, FVB background, t1/2, Mdr1a/b (−/−) mice, kidney",1.79 h
same,half-life,"[1]; Mdr1a/b (−/−) knock-out, FVB background, t1/2, Mdr1a/b (−/−) mice, serum",1.62 h
same,AUC,"[1]; Mdr1a/b (−/−) knock-out, FVB background, serum",0.215 µM·h
same,Vmbil (biliary transport Vmax),"[2]; mdra1a/b (−/−) mouse, optimized to fecal data",23.35 nmol/L/h
same,Partition coefficient PCblood,[2]; mouse model,1.0
same,Partition coefficient PCBM,"[2]; mouse model, bone marrow, optimized to mouse mdr1a/b (−/−) data",1.0
same,Partition coefficient PCCNS,[2]; [3],1.21
same,Partition coefficient PCGut,[2]; [3],1.08
same,Partition coefficient PCKidney,[2]; [3],3.73
same,Partition coefficient PCLiver,[2]; [3],2.26
same,Km at 5 min,in vitro,11.6 µM

# — paper PMC9834611 (Pharmacology Research & Perspectives, 2023)
